Test results published in patent US11974969B2, “Artificially synthesized sphingosine derivative lipoid monomer and use of same for delivering nucleic acid” (INSTITUTE OF BASIC MEDICAL SCIENCES CHINESE ACADEMY OF …, priority 2018, dated 2024).

System: HEK293T cells
Experiment: Flow cytometry (CFlow): delivery of FAM-labeled single-stranded PGY-sRNA-6 into HEK293T cells by different concentrations of single sphingosine derivative (Example 1)
Format: cell-based, human
Details: for delivery of single-stranded PGY-sRNA-6 into 293T cells (fluorescence shift compared to free uptake group): different concentrations: 3.75, 12.5, 37.5 μg single lipid, 0.1 nmol FAM-labeled sRNA, final 100 nM, 9 hours, flow cytometry; for Lipid delivery group (different concentrations of lipids) 3.75 μg/mL: single sphingosine derivative 3.75 μg/mL; for Lipid delivery group (different concentrations of lipids) 3.75 μg/mL / Lipid delivery group (different concentrations of lipids) 12.5 μg/mL / Lipid delivery group (different concentrations of lipids) 37.5 μg/mL: FAM-labeled PGY-ssRNA-6 100 nM, 293T cells, fluorescence shift by flow cytometry; for Lipid delivery group (different concentrations of lipids) 12.5 μg/mL: single sphingosine derivative 12.5 μg/mL; for Lipid delivery group (different concentrations of lipids) 37.5 μg/mL: single sphingosine derivative 37.5 μg/mL
Description: 2.1 5 μl of small RNA (Ribobio, 20 μM, as shown in Table 2) and 95 μL of DEPC (Sigma) treated water were added into a 1.5 ml EP tube and mixed well. Then a certain amount of single lipid or lipid composition in chloroform solution (as shown in Table 1) was added and fully mixed by sucking and blowing;
2.2 The system was fully mixed and was heated in a water bath at 90° C. for 15 minutes;
2.3 The system was taken out and cooled down to room temperature.
4.3 The human embryonic kidney cell line HEK293T and human monocyte THP-1 cells used in the experiment were cultured to logarithmic growth phase, and then plated into 12-well plates with a cell density of 6×10^5/1 mL medium/well. The 12-well plate (1 mL medium/well) was incubated overnight (12 h) at 37° C., followed by subsequent experiments.
4.4 The experiment groups were as follows: • 1) Naïve group: untreated cells. This group served as a blank control group. • 2) Free uptake group: […] of 5′-FAM labeled small RNA solution (storage concentration is 20 μM) was directly added. This group served as a negative control group; • 3) Lipid nucleic acid mixture treatment group: The mixture of the lipid prepared in step 2 and the 5′-FAM-labeled small RNA was added into the cells and mixed well. The final concentration of small RNA is 100 nM.
4.5 After co-incubation with cells for 6 h/9 h, the cells were washed three times with PBS. The cells were re-suspended with PBS (self-prepared). The flow cytometer Accuri® C6 instrument (purchased from BD, US) was used to detect the fluorescence intensity of the cells in the sample wells. Implementation method: the software CFlow Plus used in the flow cytometer Accuri® C6 instrument detection was opened, the instrument was washed with cleaning solution for 3 minutes, and then washed with double-distilled water for 5 minutes. The injection of blank group samples was started while setting the number of cells unlimited. The injection of Naïve group samples was stopped when the number of cells detected was 10000 events. The live cell group in the fluorescence spectrum (abscissa: FSC-A, ordinate: SSC-A) was circled as gate P1. With the number of cells set as limited, the detection was stopped when the number of cells in gate P1 reached 10000 events. The fluorescence shift value was obtained in the fluorescence spectrum (abscissa: fluorescence channel FLA-1, ordinate: SSC-A).
1) Conditions of the boiling method: to 100 μL FAM-labeled single-stranded PGY-sRNA-6 solution was added corresponding amount of lipid solution, and heated at 90° C. for 15 min;
2) Experimental conditions: the final concentration of small RNA was 100 nM. 9 hours after being added to the cells, the amount of single-stranded PGY-sRNA-6 that entered into the cells was compared by detecting the fluorescence shift using flow cytometry technology. For the detailed protocols, see “Flow cytometry technology (CFlow) determined the uptake amount of nucleic acid that is delivered into cells by lipid”. All experiments were performed in triplicates.

Row | SMILES | delivery of single-stranded PGY-sRNA-6 into 293T cells (fluorescence shift compared to free uptake group) | Lipid delivery group (different concentrations of lipids) 3.75 μg/mL [%] | Lipid delivery group (different concentrations of lipids) 12.5 μg/mL [%] | Lipid delivery group (different concentrations of lipids) 37.5 μg/mL [%]
1 | CCCCCCCCCCCCCC=CC(O)C(COP(=O)(O)OCCN)NC(C)=O (stereo not shown) [So-60, N-Acetyl-Sphingosylphosphorylethanolamine] | deliver | 7.10 | 7.10 | 6.20
2 | CCCCCCCCCCCCC/C=C/[C@@H](O)[C@@H](N)COP(=O)(O)O [So-5, Sphingosine-1-Phosphoric Acid] | deliver | 2.80 | 1.60 | 2.40
3 | CCCCCCCCCCCCCCCC(=O)N[C@@H](CO)[C@H](O)[C@H](O)CCCCCCCCCCCCCC [So-68, N-[(1S,2S,3R)-2,3-dihydroxy-1-(hydroxymethyl)heptadecyl]-hexadecanamide] | deliver | 4.80 | 3.80 | 3.90
4 | CC(C)CCCCCCCCCCC[C@@H](O)[C@@H](N)CO [So-75, 1,3-Hexadecanediol, 2-amino-15-methyl-, D-erythro-] | deliver | 3.00 | 4.20 | 11.40
5 | CCCCCCCCCCCCCC[C@@H](O)[C@@H](O)[C@H](CO)NC(=O)CCCCC [So-67, N-[(1S,2S,3R)-2,3-dihydroxy-1-(hydroxymethyl)heptadecyl]-hexanamide] | deliver | 6.30 | 5.30 | 2.80
6 | CCCCCCCCCCCCCCC[C@H](O)[C@H](N)CO [So-46, C18 L-erythro Sphinganine (d18:0)] | deliver | 0.20 | 0.30 | 6.90
7 | CCCCCCCCCCCCCCC[C@@H](O)[C@@H](N)CO (stereo in doubt) [So-71, (2S,3R)-2-amino-1,3-Octadecanediol] | deliver | 3.60 | 6.20 | 8.80
8 | CCCCCCCCCCCCC/C=C/[C@@H](O)[C@@H](N)CO[C@@H]1OC(CO)[C@@H](O)C(O)C1O (stereo partly drawn) [So-66, D-glucosyl-β1-1′-D-erythro-sphingosine] | deliver | 7.10 | 18.10 | 29.50
9 | CCCCCCCCCCCCCCCCC(=O)N[C@@H](CO)[C@H](O)CCCCCCCCCCCCCCC [So-1, N-heptadecanoyl-D-erythro-Dihydrosphingosine] | deliver | 1.60 | 1.50 | 1.40
10 | CCCCCCCCCCCC/C=C/[C@@H](O)[C@@H](N)CO [So-53, D-erythro-Sphingosine C-17] | deliver | 0.20 | 0.30 | 6.70
